From paper PMC12454493, “Insight on novel sulfamoylphenyl pyrazole derivatives as anticancer carbonic anhydrase inhibitors” (Molecular Diversity, 2024)

Key:
Assay type in all cases: cell-based
[1] = tested on: CCRF-CEM; test: NCI-60 one-dose SRB screen (Leukemia); conditions: Homo sapiens, single dose 10 µM, 48 h, read-out: Growth inhibition percent (GI %)
[2] = tested on: A549/ATCC; test: NCI-60 one-dose SRB screen (Non-Small Cell Lung Cancer); conditions: Homo sapiens, single dose 10 µM, 48 h, read-out: Growth inhibition percent (GI %)
[3] = tested on: EKVX; test: as above; conditions: Homo sapiens, single dose 10 µM, 48 h, read-out: Growth inhibition percent (GI %)
[4] = tested on: HOP-62; test: as above; conditions: Homo sapiens, single dose 10 µM, 48 h, read-out: Growth inhibition percent (GI %)
[5] = tested on: HOP-92; test: as above; conditions: Homo sapiens, single dose 10 µM, 48 h, read-out: Growth inhibition percent (GI %)
[6] = tested on: NCI-H226; test: as above; conditions: Homo sapiens, single dose 10 µM, 48 h, read-out: Growth inhibition percent (GI %)
[7] = tested on: NCI-H23; test: as above; conditions: Homo sapiens, single dose 10 µM, 48 h, read-out: Growth inhibition percent (GI %)
[8] = tested on: NCI-H322M; test: as above; conditions: Homo sapiens, single dose 10 µM, 48 h, read-out: Growth inhibition percent (GI %)
[9] = tested on: NCI-H460; test: as above; conditions: Homo sapiens, single dose 10 µM, 48 h, read-out: Growth inhibition percent (GI %)
[10] = tested on: NCI-H522; test: as above; conditions: Homo sapiens, single dose 10 µM, 48 h, read-out: Growth inhibition percent (GI %)
[11] = tested on: COLO 205; test: NCI-60 one-dose SRB screen (Colon Cancer); conditions: Homo sapiens, single dose 10 µM, 48 h, read-out: Growth inhibition percent (GI %)
[12] = tested on: HCC-2998; test: NCI-60 one-dose SRB screen (Colon Cancer); conditions: Homo sapiens, single dose 10 µM, 48 h, read-out: Growth inhibition percent (GI %)
[13] = tested on: HCT-116; test: NCI-60 one-dose SRB screen (Colon Cancer); conditions: Homo sapiens, single dose 10 µM, 48 h, read-out: Growth inhibition percent (GI %)
[14] = tested on: HCT-15; test: NCI-60 one-dose SRB screen (Colon Cancer); conditions: Homo sapiens, single dose 10 µM, 48 h, read-out: Growth inhibition percent (GI %)
[15] = tested on: HT29; test: NCI-60 one-dose SRB screen (Colon Cancer); conditions: Homo sapiens, HT-29, single dose 10 µM, 48 h, read-out: Growth inhibition percent (GI %)
[16] = tested on: KM12; test: NCI-60 one-dose SRB screen (Colon Cancer); conditions: Homo sapiens, single dose 10 µM, 48 h, read-out: Growth inhibition percent (GI %)
[17] = tested on: SW-620; test: NCI-60 one-dose SRB screen (Colon Cancer); conditions: Homo sapiens, single dose 10 µM, 48 h, read-out: Growth inhibition percent (GI %)
[18] = tested on: SF-268; test: NCI-60 one-dose SRB screen (CNS Cancer); conditions: Homo sapiens, single dose 10 µM, 48 h, read-out: Growth inhibition percent (GI %)
[19] = tested on: SF-295; test: NCI-60 one-dose SRB screen (CNS Cancer); conditions: Homo sapiens, single dose 10 µM, 48 h, read-out: Growth inhibition percent (GI %)
[20] = tested on: SF-539; test: NCI-60 one-dose SRB screen (CNS Cancer); conditions: Homo sapiens, single dose 10 µM, 48 h, read-out: Growth inhibition percent (GI %)
[21] = tested on: SNB-19; test: NCI-60 one-dose SRB screen (CNS Cancer); conditions: Homo sapiens, single dose 10 µM, 48 h, read-out: Growth inhibition percent (GI %)
[22] = tested on: SNB-75; test: NCI-60 one-dose SRB screen (CNS Cancer); conditions: Homo sapiens, single dose 10 µM, 48 h, read-out: Growth inhibition percent (GI %)
[23] = tested on: U251; test: NCI-60 one-dose SRB screen (CNS Cancer); conditions: Homo sapiens, U-251, single dose 10 µM, 48 h, read-out: Growth inhibition percent (GI %)
[24] = tested on: LOX IMVI; test: NCI-60 one-dose SRB screen (Melanoma); conditions: Homo sapiens, single dose 10 µM, 48 h, read-out: Growth inhibition percent (GI %)
[25] = tested on: M14; test: NCI-60 one-dose SRB screen (Melanoma); conditions: Homo sapiens, single dose 10 µM, 48 h, read-out: Growth inhibition percent (GI %)
[26] = tested on: MALME-3M; test: NCI-60 one-dose SRB screen (Melanoma); conditions: Homo sapiens, single dose 10 µM, 48 h, read-out: Growth inhibition percent (GI %)
[27] = tested on: MDA-MB-435; test: NCI-60 one-dose SRB screen (Melanoma); conditions: Homo sapiens, single dose 10 µM, 48 h, read-out: Growth inhibition percent (GI %)
[28] = tested on: SK-MEL-28; test: NCI-60 one-dose SRB screen (Melanoma); conditions: Homo sapiens, single dose 10 µM, 48 h, read-out: Growth inhibition percent (GI %)
[29] = tested on: SK-MEL-2; test: NCI-60 one-dose SRB screen (Melanoma); conditions: Homo sapiens, single dose 10 µM, 48 h, read-out: Growth inhibition percent (GI %)
[30] = tested on: SK-MEL-5; test: NCI-60 one-dose SRB screen (Melanoma); conditions: Homo sapiens, single dose 10 µM, 48 h, read-out: Growth inhibition percent (GI %)
[31] = tested on: UACC-257; test: NCI-60 one-dose SRB screen (Melanoma); conditions: Homo sapiens, single dose 10 µM, 48 h, read-out: Growth inhibition percent (GI %)
[32] = tested on: UACC-62; test: NCI-60 one-dose SRB screen (Melanoma); conditions: Homo sapiens, single dose 10 µM, 48 h, read-out: Growth inhibition percent (GI %)
[33] = tested on: 786-0; test: NCI-60 one-dose SRB screen (Renal Cancer); conditions: Homo sapiens, single dose 10 µM, 48 h, read-out: Growth inhibition percent (GI %)
[34] = tested on: A498; test: NCI-60 one-dose SRB screen (Renal Cancer); conditions: Homo sapiens, single dose 10 µM, 48 h, read-out: Growth inhibition percent (GI %)
[35] = tested on: ACHN; test: NCI-60 one-dose SRB screen (Renal Cancer); conditions: Homo sapiens, single dose 10 µM, 48 h, read-out: Growth inhibition percent (GI %)
[36] = tested on: CAKI-1; test: NCI-60 one-dose SRB screen (Renal Cancer); conditions: Homo sapiens, single dose 10 µM, 48 h, read-out: Growth inhibition percent (GI %)
[37] = tested on: RXF 393; test: NCI-60 one-dose SRB screen (Renal Cancer); conditions: Homo sapiens, single dose 10 µM, 48 h, read-out: Growth inhibition percent (GI %)
[38] = tested on: SN12C; test: NCI-60 one-dose SRB screen (Renal Cancer); conditions: Homo sapiens, single dose 10 µM, 48 h, read-out: Growth inhibition percent (GI %)
[39] = tested on: TK-10; test: NCI-60 one-dose SRB screen (Renal Cancer); conditions: Homo sapiens, single dose 10 µM, 48 h, read-out: Growth inhibition percent (GI %)
[40] = tested on: UO-31; test: NCI-60 one-dose SRB screen (Renal Cancer); conditions: Homo sapiens, single dose 10 µM, 48 h, read-out: Growth inhibition percent (GI %)
[41] = tested on: BT-549; test: NCI-60 one-dose SRB screen (Breast Cancer); conditions: Homo sapiens, single dose 10 µM, 48 h, read-out: Growth inhibition percent (GI %)
[42] = tested on: HS 578T; test: NCI-60 one-dose SRB screen (Breast Cancer); conditions: Homo sapiens, single dose 10 µM, 48 h, read-out: Growth inhibition percent (GI %)
[43] = tested on: MCF-7; test: NCI-60 one-dose SRB screen (Breast Cancer); conditions: Homo sapiens, MCF7, single dose 10 µM, 48 h, read-out: Growth inhibition percent (GI %)
[44] = tested on: MDA-MB-231/ATCC; test: NCI-60 one-dose SRB screen (Breast Cancer); conditions: Homo sapiens, single dose 10 µM, 48 h, read-out: Growth inhibition percent (GI %)
[45] = tested on: MDA-MB-468; test: NCI-60 one-dose SRB screen (Breast Cancer); conditions: Homo sapiens, single dose 10 µM, 48 h, read-out: Growth inhibition percent (GI %)
[46] = tested on: T-47D; test: NCI-60 one-dose SRB screen (Breast Cancer); conditions: Homo sapiens, T47D, single dose 10 µM, 48 h, read-out: Growth inhibition percent (GI %)

SMILES: NC(=S)NNC(=O)c1cn(-c2ccc(S(N)(=O)=O)cc2)nc1-c1ccc(Br)cc1 [Compound 9d, 2-[3-(4-Bromophenyl)-1-(4-sulfamoylphenyl)-1H-pyrazole-4-carbonyl] hydrazine-1-carbothioamide]
- inhibition at 10 µM [1]: < 5%
- inhibition at 10 µM [2]: < 5%
- inhibition at 10 µM [3]: < 5%
- inhibition at 10 µM [4]: < 5%
- inhibition at 10 µM [5]: < 5%
- inhibition at 10 µM [6]: < 5%
- inhibition at 10 µM [7]: < 5%
- inhibition at 10 µM [8]: 14.9%
- inhibition at 10 µM [9]: < 5%
- inhibition at 10 µM [10]: 8.15%
- inhibition at 10 µM [11]: < 5%
- inhibition at 10 µM [12]: < 5%
- inhibition at 10 µM [13]: < 5%
- inhibition at 10 µM [14]: < 5%
- inhibition at 10 µM [15]: < 5%
- inhibition at 10 µM [16]: < 5%
- inhibition at 10 µM [17]: < 5%
- inhibition at 10 µM [18]: < 5%
- inhibition at 10 µM [19]: < 5%
- inhibition at 10 µM [20]: 6.59%
- inhibition at 10 µM [21]: < 5%
- inhibition at 10 µM [22]: 12.1%
- inhibition at 10 µM [23]: < 5%
- inhibition at 10 µM [24]: < 5%
- inhibition at 10 µM [25]: < 5%
- inhibition at 10 µM [26]: 10.9%
- inhibition at 10 µM [27]: < 5%
- inhibition at 10 µM [28]: < 5%
- inhibition at 10 µM [29]: < 5%
- inhibition at 10 µM [30]: < 5%
- inhibition at 10 µM [31]: < 5%
- inhibition at 10 µM [32]: < 5%
- inhibition at 10 µM [33]: < 5%
- inhibition at 10 µM [34]: < 5%
- inhibition at 10 µM [35]: < 5%
- inhibition at 10 µM [36]: 12.1%
- inhibition at 10 µM [37]: < 5%
- inhibition at 10 µM [38]: < 5%
- inhibition at 10 µM [39]: < 5%
- inhibition at 10 µM [40]: 14.7%
- inhibition at 10 µM [41]: < 5%
- inhibition at 10 µM [42]: 6.72%
- inhibition at 10 µM [43]: < 5%
- inhibition at 10 µM [44]: < 5%
- inhibition at 10 µM [45]: < 5%
- inhibition at 10 µM [46]: 7.04%
